Assay results from PMC12771125, “Compounds Reducing Human Sperm Motility as Potential Nonhormonal Contraceptives Identified Using a High-Throughput Phenotypic Screening Platform” (ACS Omega, 2025).
Converted amounts (≈) assume the structure as drawn. Where two headings read alike, the source gives them in different places.

What was measured:
[1] = test system: HepG2 cells; assay: HepG2 cytotoxicity assay (resazurin, 72 h); assay type: cell-based, human; settings: Homo sapiens, HepG2, 72 h; read-out: HepG2 pEC50 (converted)
Source text: Our overarching aims for investigating our chemical series and deciding which ones had the potential for further progression were to achieve adequate potency in our motility assay, suitable solubility, and minimal cytotoxicity in HepG2 cells. This third point was often the most challenging, as multiple series had cytotoxicity in HepG2 cells. This observation is perhaps not surprising; many potential targets in sperm cells can also be found in somatic cells. Our cytotoxicity assay is run with an incubation time of 72 h, to give time for gross cytotoxic effects to become apparent.
Compound dilution curves were plated directly using a Labcyte Echo 550 acoustic dispenser (125 nL) in 384-well white clear-bottom plates (Greiner). HepG2 cells (ATCCHepG2 HB-8065) were cultured in minimum essential medium (supplemented with glutamax) with 10% FCS and plated (25 μL) using a WellMate dispenser ([…]) and incubated for 72 h. Doxorubicin was used as a positive control drug. Resazurin was then added to each well at a final concentration of 45 μM, and fluorescence was measured using a PHERAstar LS (BMG Labtech) after 4 h of further incubation (excitation of 528 nm and emission of 590 nm). Raw data were normalized to controls and expressed as % growth.
Figure S2: Concentration-response curves from high throughput HepG2 viability assay. Each compound was tested in duplicate and the curves of each replicate are shown. The reported values in the tables are an average of the 2 pEC50 values obtained. […]
determine 0% effect, positive control used to determine 100% effect).
Hit compounds 1a, 6b and 7a were repurchased from commercial suppliers including enamine and […]

[2] = test system: human sperm; assay: Reduction of sperm motility (RSM) high-throughput phenotypic assay; assay type: cell-based; settings: for EC50: Homo sapiens, reduction of progressive sperm motility relative to control
Method: Using our previously established phenotypic human sperm motility screening platform, we screened a large subset (62,621 compounds) of one of our in-house diversity libraries (National Phenotypic Screening Centre (NPSC) Diversity Set) (Figure A,B). Briefly, human sperm are collected, isolated from semen, distributed into 384-well plates with test compounds, time-lapse images of sperm movement are recorded using a high-content imager, and progressive motility parameters are calculated using custom data analysis software. Sperm motility is complicated, and the mechanisms underpinning its regulation are not fully understood. Progressive motility, which is a measurement of the movement of forward progression of sperm, is most closely linked to sperm quality, and the percentage of progressively motile sperm compared to control is therefore the parameter utilized during the work described in this paper. […]
We used an HTS screening platform to assess the motility of live human spermatozoa. The platform and its development are described in detail in Gruber et al. , and summarized below in brief. The platform was used to screen compound libraries specifically focusing on reduction in motility. Interesting compounds were examined in further detail as possible starting points for a medicinal chemistry program. The experimental design is illustrated in Figure .
Donors were local to the Dundee area, over the age of 18, and had no known fertility problems and normal sperm concentration, motility and semen characteristics according to WHO 2021 criteria. Special category personal data for donors, such as ethnic origin, was not recorded in accordance with ethical approval and UK GDPR. Samples were obtained by masturbation, after sexual abstinence of 2–5 days, and delivered to the research laboratory within one h of production. Samples were allowed to liquefy at 37 °C for 15–30 min prior to preparation by discontinuous density gradient centrifugation (DGC). […] A minimum of 3 prepared donor samples were routinely pooled to reduce donor-to-donor variability for primary screening assays. Pooled samples were incubated for 3 h at 37 °C under noncapacitating conditions.
In brief, screening batches of cells were transferred to a robotic platform (HighRes Biosolutions Inc.) and maintained during the screen at 37 °C at 5% CO2. Assay-ready 384-well plates containing compounds were prepared prior to the screen and filled with approximately 10,000 spermatozoa (20 μL) per well using a liquid handling system (MultiDrop Combi; ThermoFisher). These plates were incubated for 10 min prior to imaging. The HTS system utilized a Yokogawa CV7000 Cell Voyager high-throughput microscope to record time-lapse images from 2 positions in each well. An adaptation of a tracking algorithm, Trackpy v0.4.1 was utilized to track individual spermatozoa within each well and obtain kinematic parameters. Within the compound-test plates, DMSO was used as the vehicle control.
All steps were performed as previously described. , In summary, data from every compound well were normalized to those from in-plate DMSO controls (wells containing the same amount of DMSO as compound wells). Two positions were recorded in every well, and the average of those positions was used for calculating % of control (median value/DMSO median) × 100. Each plate contained 16 DMSO control wells. Median curvilinear velocity (VCL) was used as the primary readout for the NPSC Diversity Set screened at 6 μM, and percentage progressive motility (PM) was used for all other libraries screened. Hits from the primary screening were chosen based on the % change compared to the control. In these experiments, an RSM of ≥20% compared to negative controls (DMSO) was chosen as a cutoff for potential progression.
In a screening program of this scale, a significant number of compounds are likely to have a negative effect on sperm motility, but a number will show general toxicity. […]

[3] = Aqueous solubility; assay type: physicochemical
[4] = 10 min, 10 min incubation, reported <X (neg. log of top concentration) if largest reduction <70%, read-out: RSM pEC50 10 mins (converted)
[5] = 3 h incubation, reported <X if largest reduction <70%, read-out: RSM pEC50 3 hrs (converted)
[6] = 6 h incubation, reported <X if largest reduction <70%, read-out: RSM pEC50 6 hrs (converted)

Structure (SMILES)	EC50 [1]	EC50 [2, 4]	EC50 [2, 5]	EC50 [2, 6]	solubility [3]	difference between pEC50 in the sperm motility assay and pEC50 in the HepG2 cytotoxicity assay [2]
O=C(Nc1nc(-c2cccnc2)cs1)Nc1ccc(F)cc1F [Compound 3d]	> 100 µM	> 31.6 µM	> 31.6 µM	> 31.6 µM	1.5 µM (≈ 0.499 µg/mL)	–
Cc1cc(NC(=O)c2ccccc2)n(-c2ccccc2)n1 [Compound 6e]	> 100 µM	> 31.6 µM	> 31.6 µM	> 31.6 µM	240 µM (≈ 66.6 µg/mL)	–
OC1CCC(Nc2ccnc3cc(Cl)ccc23)CC1 (stereo not shown) [Compound 5f]	> 100 µM	> 31.6 µM	> 31.6 µM	> 31.6 µM	210 µM (≈ 58.1 µg/mL)	–
Oc1ccc(Nc2ccnc3cc(Cl)ccc23)cc1 [Compound 5e]	79.4 µM	> 31.6 µM	> 31.6 µM	0.316 µM	3.5 µM (≈ 0.948 µg/mL)	–
CC(C)C(=O)Nc1nc2c(Cl)c(Cl)ccc2s1 [Compound 4c]	50.1 µM	10 µM	6.31 µM	5.01 µM	18 µM (≈ 5.21 µg/mL)	–
NCCN(C(=O)c1ccc(F)cc1F)c1ccc(Cl)cc1 [Compound 1n]	> 100 µM	> 31.6 µM	> 31.6 µM	> 31.6 µM	73 µM (≈ 22.7 µg/mL)	–
CC(C)NC(=O)Nc1nc(-c2ccccn2)cs1 [Compound 3j]	> 100 µM	> 31.6 µM	> 31.6 µM	> 31.6 µM	140 µM (≈ 36.7 µg/mL)	–
CN1CCN(c2cc(N3CCCCC3)c3ccccc3n2)CC1 [Compound 7g]	50.1 µM	> 31.6 µM	> 31.6 µM	> 31.6 µM	210 µM (≈ 65.2 µg/mL)	–
O=C(Nc1ccc([N+](=O)[O-])cc1Cl)c1cc(Cl)ccc1O [Compound 1a, Niclosamide, reference compound]	3.16 µM	1 µM	–	–	4.5 µM (≈ 1.47 µg/mL)	0.5 log units
O=C(Nc1nc(-c2ccccc2)cs1)Nc1ccc(F)cc1F [Compound 3e]	50.1 µM	> 31.6 µM	> 31.6 µM	> 31.6 µM	0.24 µM (≈ 0.0795 µg/mL)	–
c1ccc(-c2cc(N3CCCCC3)c3ccccc3n2)cc1 [Compound 7b]	> 100 µM	> 31.6 µM	> 31.6 µM	> 31.6 µM	0.6 µM (≈ 0.173 µg/mL)	–
O=C(Nc1nc(-c2ccccn2)cs1)Nc1ccc(F)cc1F [Compound 3b, 1-(2,4-Difluorophenyl)-3-(4-(pyridin-2-yl)thiazol-2-yl)urea]	7.94 µM	> 31.6 µM	> 31.6 µM	7.94 µM	1.2 µM (≈ 0.399 µg/mL)	–
NCCN(C(=O)c1ccc(Cl)cc1Cl)c1ccc(OCc2ccc(Cl)cc2)cc1 [Compound 1b, N-(2-Aminoethyl)-2,4-dichloro-N-(4-((4-chlorobenzyl)oxy)phenyl)benzamide]	5.01 µM	12.6 µM	20 µM	10 µM	53 µM (≈ 23.8 µg/mL)	–
N#Cc1ccc(NC(=O)c2cc(Cl)ccc2O)cc1 [Compound 1g]	2.51 µM	5.01 µM	–	–	11 µM (≈ 3 µg/mL)	–
Cc1sc(NC(=O)Nc2ccc(F)cc2F)nc1-c1ccccn1 [Compound 3m]	12.6 µM	> 31.6 µM	15.8 µM	2 µM	0.38 µM (≈ 0.132 µg/mL)	less than 1 log units
Nc1nc2c(Cl)c(Cl)ccc2s1 [Compound 4b]	50.1 µM	> 31.6 µM	> 31.6 µM	> 31.6 µM	60 µM (≈ 13.1 µg/mL)	–
CNC(=O)c1ccccc1Nc1nc(Nc2ccc(N3CCOCC3)cc2OC)ncc1Cl [Compound 2b]	2 µM	2.51 µM	–	–	2.2 µM (≈ 1.03 µg/mL)	–
Cc1cc(NC(=O)c2cc(Cl)ccc2O)ccc1C#N [Compound 1c]	25.1 µM	3.98 µM	–	–	60 µM (≈ 17.2 µg/mL)	–
NC(=O)Nc1nc2c(Cl)c(Cl)ccc2s1 [Compound 4h]	63.1 µM	> 31.6 µM	> 31.6 µM	> 31.6 µM	190 µM (≈ 49.8 µg/mL)	–
N#Cc1ccc(NC(=O)c2cc(Cl)ccc2O)cn1 [Compound 1h]	20 µM	> 20 µM	–	–	100 µM (≈ 27.4 µg/mL)	–
Cc1ccc(Nc2cc(C)nn2-c2nc(C)cc(C)n2)cc1 [Compound 6b, 1-(4,6-Dimethylpyrimidin-2-yl)-3-methyl-N-(p-tolyl)-1H-pyrazol-5-amine]	> 100 µM	> 31.6 µM	> 31.6 µM	1.58 µM	1.1 µM (≈ 0.323 µg/mL)	–
CS(=O)(=O)Nc1cc(F)ccc1Nc1nc(Nc2ccc(C(=O)N3CCOCC3)cc2)ncc1Cl [Compound 2c]	7.94 µM	5.01 µM	3.16 µM	3.98 µM	2.3 µM (≈ 1.2 µg/mL)	–
Oc1ccc(Nc2ccnc3cc(Cl)ccc23)cn1 [Compound 5i]	> 100 µM	> 31.6 µM	> 31.6 µM	> 31.6 µM	220 µM (≈ 59.8 µg/mL)	–
Oc1ccc(Nc2ccnc3cc(Cl)ccc23)nc1 [Compound 5j]	> 100 µM	> 31.6 µM	> 31.6 µM	> 31.6 µM	6.7 µM (≈ 1.82 µg/mL)	–
